Values of other authors in patent US8895557B2, “Pharmaceutical formulations of ecteinascidin compounds” (Pharma Mar, S.A., Sociedad Unipersonal, priority 2004, dated 2014).

Experiments:
[1] = test system: human tumour xenografts, including melanoma and ovarian and breast carcinoma; settings: human tumour xenografts in athymic mice
[2] = test system: sarcoma and breast and ovarian carcinoma; settings: phase I, patients with sarcoma and breast and ovarian carcinoma
[3] = mannitol/phosphate lyophilised product reconstituted with 5 ml Water for Injection, ambient temperature

Structure (SMILES): COc1cc2c(cc1O)CCN[C@]21CS[C@@H]2c3c(OC(C)=O)c(C)c4c(c3[C@H](COC1=O)N1C2C2c3c(cc(C)c(OC)c3O)C[C@@H]([C@@H]1O)N2C)OCO4 (stereo partly shown) [ET-743, Ecteinascidin 743]
- aqueous solubility: limited aqueous solubility
- antineoplastic activity [1]: potent antineoplastic activity
- clinical responses [2]: promising responses were observed
- time for which the reconstituted solution is stable [3]: up to 24 h
